As usually defined, the IC50 is the concentration at which inhibition is half-maximal. Lower therefore signals inhibition by little substance.

Molecules are shown by their SMILES. Where a name gives a salt, the structure may show the parent alone.

Chain of ROCK2 (O75116 whole entry, species assumed): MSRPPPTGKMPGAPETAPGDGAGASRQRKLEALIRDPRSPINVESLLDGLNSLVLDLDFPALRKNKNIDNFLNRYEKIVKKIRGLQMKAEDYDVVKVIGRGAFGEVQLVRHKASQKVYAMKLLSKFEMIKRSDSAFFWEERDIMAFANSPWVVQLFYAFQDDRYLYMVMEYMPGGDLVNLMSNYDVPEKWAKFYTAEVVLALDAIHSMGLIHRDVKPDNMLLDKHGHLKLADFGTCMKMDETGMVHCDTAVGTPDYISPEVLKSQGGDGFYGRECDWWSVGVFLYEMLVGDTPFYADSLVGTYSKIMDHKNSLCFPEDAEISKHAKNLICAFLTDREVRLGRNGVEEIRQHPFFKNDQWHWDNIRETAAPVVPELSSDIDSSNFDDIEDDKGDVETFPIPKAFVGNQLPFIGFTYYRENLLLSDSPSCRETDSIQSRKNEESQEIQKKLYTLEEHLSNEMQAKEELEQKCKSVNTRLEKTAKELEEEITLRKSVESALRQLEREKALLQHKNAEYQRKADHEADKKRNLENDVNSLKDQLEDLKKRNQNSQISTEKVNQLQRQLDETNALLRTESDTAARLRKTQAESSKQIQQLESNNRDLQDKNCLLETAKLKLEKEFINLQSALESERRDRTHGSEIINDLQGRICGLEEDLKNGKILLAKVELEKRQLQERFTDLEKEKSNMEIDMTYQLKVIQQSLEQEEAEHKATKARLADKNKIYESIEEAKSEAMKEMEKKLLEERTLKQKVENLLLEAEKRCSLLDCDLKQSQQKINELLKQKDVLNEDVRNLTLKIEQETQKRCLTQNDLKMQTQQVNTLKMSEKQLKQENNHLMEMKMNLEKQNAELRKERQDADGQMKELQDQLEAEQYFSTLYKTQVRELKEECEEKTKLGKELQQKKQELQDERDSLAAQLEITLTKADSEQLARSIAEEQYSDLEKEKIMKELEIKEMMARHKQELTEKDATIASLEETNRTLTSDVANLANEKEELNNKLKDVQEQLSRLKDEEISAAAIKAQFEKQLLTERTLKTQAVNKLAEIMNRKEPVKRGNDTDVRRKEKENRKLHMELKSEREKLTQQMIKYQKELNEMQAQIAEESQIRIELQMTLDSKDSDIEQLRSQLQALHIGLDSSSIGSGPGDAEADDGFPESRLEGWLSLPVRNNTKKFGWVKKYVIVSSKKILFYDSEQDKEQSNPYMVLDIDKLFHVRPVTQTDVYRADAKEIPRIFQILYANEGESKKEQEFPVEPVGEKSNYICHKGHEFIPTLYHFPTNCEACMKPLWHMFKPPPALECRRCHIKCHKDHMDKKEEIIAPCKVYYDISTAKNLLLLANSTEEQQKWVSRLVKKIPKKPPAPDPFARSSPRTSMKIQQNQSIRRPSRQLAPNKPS

This assay addresses ROCK2 (Homo sapiens (Human), UniProt O75116). Put plainly: ROCK2 kinase inhibition assay (FITC peptide substrate, LABCHIP 3000 Reader). Type of assay: biochemical. The conditions noted are these: 5 μM ATP, 1.5 μM peptide substrate. The method, then:
The effectiveness of compounds of the present invention as ROCK inhibitors can be determined in a 30 μL assay containing 20 mM HEPES, pH 7.5, 20 mM MgCl2, 0.015% Brij-35, 4 mM DTT, 5 μM ATP and 1.5 μM peptide substrate (FITC-AHA-AKRRRLSSLRA-OH) (SEQ ID NO. 1). Compounds were dissolved in DMSO so that the final concentration of DMSO was <2%, and the reaction was initiated with Rho kinase variants. After incubation, the reaction was terminated by the addition of EDTA and the phosphorylated and non-phosphorylated peptides separated using a LABCHIP® 3000 Reader (Caliper Life Sciences). […] Compounds were tested in dose-response format, and the inhibition of kinase activity was calculated at each concentration of compound. The inhibition data were fit using a curve-fitting program to determine the IC50; i.e., the concentration of compound required to inhibit 50% of kinase activity.
Representative examples were tested in the ROCK2 assay described above and found having ROCK2 inhibitory activity.
`O=C(NC1CCC1)c1cccc(CN2C(=O)N(c3ccc(-c4cn[nH]c4)cc3)CC23CCOCC3)c1` [Example 33, 3-((3-(4-(1H-pyrazol-4-yl)phenyl)-2-oxo-8-oxa-1,3-diazaspiro[4.5]decan-1-yl)methyl)-N-cyclobutylbenzamide]: the IC50 was less than 3 nM.

The compound `CC(C)NC(=O)c1cccc(CN2C(=O)N(c3ccc(-c4cn[nH]c4)cc3)CC23CCOCC3)c1` [Example 34, 3-((3-(4-(1H-pyrazol-4-yl)phenyl)-2-oxo-8-oxa-1,3-diazaspiro[4.5]decan-1-yl)methyl)-N-isopropylbenzamide] gave an IC50 of 3 to 30 nM.

With `CC(C)CNC(=O)c1cccc(CN2C(=O)N(c3ccc(-c4cn[nH]c4)cc3)CC23CCOCC3)c1` [Example 35, 3-((3-(4-(1H-pyrazol-4-yl)phenyl)-2-oxo-8-oxa-1,3-diazaspiro[4.5]decan-1-yl)methyl)-N-isobutylbenzamide], the IC50 was less than 3 nM.

Compound `O=C(NCCO)c1cccc(CN2C(=O)N(c3ccc(-c4cn[nH]c4)cc3)CC23CCOCC3)c1` [Example 36, 3-((3-(4-(1H-pyrazol-4-yl)phenyl)-2-oxo-8-oxa-1,3-diazaspiro[4.5]decan-1-yl)methyl)-N-(2-hydroxyethyl)benzamide] had an IC50 of less than 3 nM.

Take `O=C(NCC1CC1)c1cccc(CN2C(=O)N(c3ccc(-c4cn[nH]c4)cc3)CC23CCOCC3)c1` [Example 37, 3-((3-(4-(1H-pyrazol-4-yl)phenyl)-2-oxo-8-oxa-1,3-diazaspiro[4.5]decan-1-yl)methyl)-N-(cyclopropylmethyl)benzamide]: the IC50 is less than 3 nM.

In the case of `O=C(NCC(F)(F)F)c1cccc(CN2C(=O)N(c3ccc(-c4cn[nH]c4)cc3)CC23CCOCC3)c1` [Example 38, 3-((3-(4-(1H-pyrazol-4-yl)phenyl)-2-oxo-8-oxa-1,3-diazaspiro[4.5]decan-1-yl)methyl)-N-(2,2,2-trifluoroethyl)benzamide], the 50% inhibitory concentration (IC50) was less than 3 nM.

Compound `CC1(NC(=O)c2cccc(CN3C(=O)N(c4ccc(-c5cn[nH]c5)cc4)CC34CCOCC4)c2)CC1` [Example 39, 3-((3-(4-(1H-pyrazol-4-yl)phenyl)-2-oxo-8-oxa-1,3-diazaspiro[4.5]decan-1-yl)methyl)-N-(1-methylcyclopropyl)benzamide] showed an IC50 of 3 to 30 nM.

Take `O=C(NC1CCOC1)c1cccc(CN2C(=O)N(c3ccc(-c4cn[nH]c4)cc3)CC23CCOCC3)c1` (centres unmarked) [Example 40, 3-((3-(4-(1H-pyrazol-4-yl)phenyl)-2-oxo-8-oxa-1,3-diazaspiro[4.5]decan-1-yl)methyl)-N-(tetrahydrofuran-3-yl)benzamide]: the IC50 is less than 3 nM.

The compound `CCN(C)C(=O)c1cccc(CN2C(=O)N(c3ccc(-c4cn[nH]c4)cc3)CC23CCOCC3)c1` [Example 41, 3-((3-(4-(1H-pyrazol-4-yl)phenyl)-2-oxo-8-oxa-1,3-diazaspiro[4.5]decan-1-yl)methyl)-N-ethyl-N-methylbenzamide] returned an IC50 of 30 to 250 nM.

`CN(C)C(=O)c1cccc(CN2C(=O)N(c3ccc(-c4cn[nH]c4)cc3)CC23CCOCC3)c1` [Example 42, 3-((3-(4-(1H-pyrazol-4-yl)phenyl)-2-oxo-8-oxa-1,3-diazaspiro[4.5]decan-1-yl)methyl)-N,N-dimethylbenzamide] displayed a half-maximal inhibitory concentration (IC50) of 30 to 250 nM.

The compound `O=C(c1cccc(CN2C(=O)N(c3ccc(-c4cn[nH]c4)cc3)CC23CCOCC3)c1)N1CC(F)C1` [Example 43, 3-(4-(1H-pyrazol-4-yl)phenyl)-1-(3-(3-fluoroazetidine-1-carbonyl)benzyl)-8-oxa-1,3-diazaspiro[4.5]decan-2-one] came in with an IC50 of 250 to 3000 nM.

Regarding `O=C(c1cccc(CN2C(=O)N(c3ccc(-c4cn[nH]c4)cc3)CC23CCOCC3)c1)N1CC[C@H](O)C1` [Example 44, (S)-3-(4-(1H-pyrazol-4-yl)phenyl)-1-(3-(3-hydroxypyrrolidine-1-carbonyl)benzyl)-8-oxa-1,3-diazaspiro[4.5]decan-2-one], the IC50 lay in the range of 30 to 250 nM.

In the case of `CN(C(=O)c1cccc(CN2C(=O)N(c3ccc(-c4cn[nH]c4)cc3)CC23CCOCC3)c1)C1CC1` [Example 45, 3-((3-(4-(1H-pyrazol-4-yl)phenyl)-2-oxo-8-oxa-1,3-diazaspiro[4.5]decan-1-yl)methyl)-N-cyclopropyl-N-methylbenzamide], the concentration for half-maximal inhibition (IC50) is less than 3 nM.

In the case of `CN(C)C1CN(C(=O)c2cccc(CN3C(=O)N(c4ccc(-c5cn[nH]c5)cc4)CC34CCOCC4)c2)C1` [Example 46, 3-(4-(1H-pyrazol-4-yl)phenyl)-1-(3-(3-(dimethylamino)azetidine-1-carbonyl)benzyl)-8-oxa-1,3-diazaspiro[4.5]decan-2-one], the IC50 is 3 to 30 nM.

In turn, `O=C(c1cccc(CN2C(=O)N(c3ccc(-c4cn[nH]c4)cc3)CC23CCOCC3)c1)N1CCC(CO)CC1` [Example 47, 3-(4-(1H-pyrazol-4-yl)phenyl)-1-(3-(4-(hydroxymethyl)piperidine-1-carbonyl)benzyl)-8-oxa-1,3-diazaspiro[4.5]decan-2-one] registered an IC50 of 3 to 30 nM.

For the compound `COc1cccc(CN2C(=O)N(c3ccc(-c4cn[nH]c4)cc3)CC23CCN(C(=O)OC(C)(C)C)CC3)c1` [Example 48, tert-butyl 3-(4-(1H-pyrazol-4-yl)phenyl)-1-(3-methoxybenzyl)-2-oxo-1,3,8-triazaspiro[4.5]decane-8-carboxylate], the IC50 is 3 to 30 nM.

`Cc1c(F)cccc1CN1C(=O)N(c2ccc(-c3cn[nH]c3)cc2)CC12CCN(C(=O)OC(C)(C)C)CC2` [Example 49, tert-butyl 3-(4-(1H-pyrazol-4-yl)phenyl)-1-(3-fluoro-2-methylbenzyl)-2-oxo-1,3,8-triazaspiro[4.5]decane-8-carboxylate] yielded an IC50 of 3 to 30 nM.

`COc1cccc(CN2C(=O)N(c3ccc(-c4cn[nH]c4)cn3)CC23CCN(C(C)=O)CC3)c1` [Example 50, 3-(5-(1H-pyrazol-4-yl)pyridin-2-yl)-8-acetyl-1-(3-methoxybenzyl)-1,3,8-triazaspiro[4.5]decan-2-one] gave an IC50 of 3 to 30 nM.

For the compound `COc1cccc(CN2C(=O)N(c3ccc(-c4cn[nH]c4)cn3)CC23CCN(C(=O)OC(C)(C)C)CC3)c1` [Example 51, tert-butyl 3-(5-(1H-pyrazol-4-yl)pyridin-2-yl)-1-(3-methoxybenzyl)-2-oxo-1,3,8-triazaspiro[4.5]decane-8-carboxylate], the IC50 lay in the range of 3 to 30 nM.

In turn, `COc1cccc(CN2C(=O)N(c3ccc(-c4cn[nH]c4)c(C)n3)CC23CCN(C(=O)OC(C)(C)C)CC3)c1` [Example 52, tert-butyl 1-(3-methoxybenzyl)-3-(6-methyl-5-(1H-pyrazol-4-yl)pyridin-2-yl)-2-oxo-1,3,8-triazaspiro[4.5]decane-8-carboxylate] showed an IC50 of 30 to 250 nM.

Regarding `CCc1nc(N2CC3(CCN(C(=O)OC(C)(C)C)CC3)N(Cc3cccc(OC)c3)C2=O)ccc1-c1cn[nH]c1` [Example 53, tert-butyl 3-(6-ethyl-5-(1H-pyrazol-4-yl)pyridin-2-yl)-1-(3-methoxybenzyl)-2-oxo-1,3,8-triazaspiro[4.5]decane-8-carboxylate], the IC50 is 30 to 250 nM.

For the compound `COc1cccc(CN2C(=O)N(c3ccc(-c4cn[nH]c4)c(OC)n3)CC23CCN(C(=O)OC(C)(C)C)CC3)c1` [Example 54, tert-butyl 3-(6-methoxy-5-(1H-pyrazol-4-yl)pyridin-2-yl)-1-(3-methoxybenzyl)-2-oxo-1,3,8-triazaspiro[4.5]decane-8-carboxylate], the IC50 is less than 3 nM.

In turn, `COc1nc(N2CC3(CCN(C(=O)OC(C)(C)C)CC3)N(Cc3cccc(F)c3C)C2=O)ccc1-c1cn[nH]c1` [Example 55, tert-butyl 1-(3-fluoro-2-methylbenzyl)-3-(6-methoxy-5-(1H-pyrazol-4-yl)pyridin-2-yl)-2-oxo-1,3,8-triazaspiro[4.5]decane-8-carboxylate] had a concentration for half-maximal inhibition (IC50) of 3 to 30 nM.

For the compound `COc1cccc(CN2C(=O)N(c3ncc(-c4cn[nH]c4)c(OC)n3)CC23CCN(C(=O)OC(C)(C)C)CC3)c1` [Example 56, tert-butyl 3-(4-methoxy-5-(1H-pyrazol-4-yl)pyrimidin-2-yl)-1-(3-methoxybenzyl)-2-oxo-1,3,8-triazaspiro[4.5]decane-8-carboxylate], the IC50 was in the range of 3 to 30 nM.

For `COc1cccc(CN2C(=O)N(c3ccc(-c4cn[nH]c4)cc3)CC23CCNCC3)c1` [Example 57, 3-(4-(1H-pyrazol-4-yl)phenyl)-1-(3-methoxybenzyl)-1,3,8-triazaspiro[4.5]decan-2-one], the IC50 was less than 3 nM.

As to `COc1cc(F)cc(CN2C(=O)N(c3ccc(-c4cn[nH]c4)cc3)CC23CCNCC3)c1` [Example 58, 3-(4-(1H-pyrazol-4-yl)phenyl)-1-(3-fluoro-5-methoxybenzyl)-1,3,8-triazaspiro[4.5]decan-2-one, TFA], the 50% inhibitory concentration (IC50) was less than 3 nM.

The compound `COc1cc(CN2C(=O)N(c3ccc(-c4cn[nH]c4)cc3)CC23CCNCC3)ccc1F` [Example 59, 3-(4-(1H-pyrazol-4-yl)phenyl)-1-(4-fluoro-3-methoxybenzyl)-1,3,8-triazaspiro[4.5]decan-2-one] gave an IC50 of less than 3 nM.

The compound `O=C1N(c2ccc(-c3cn[nH]c3)cc2)CC2(CCNCC2)N1Cc1cccc(OCC2CC2)c1` [Example 60, 3-(4-(1H-pyrazol-4-yl)phenyl)-1-(3-(cyclopropylmethoxy)benzyl)-1,3,8-triazaspiro[4.5] decan-2-one, TFA] gave an IC50 of 3 to 30 nM.

The compound `O=C1N(c2ccc(-c3cn[nH]c3)cc2)CC2(CCNCC2)N1Cc1cccc(OC(F)F)c1` [Example 61, 3-(4-(1H-pyrazol-4-yl)phenyl)-1-(3-(difluoromethoxy)benzyl)-1,3,8-triazaspiro[4.5]decan-2-one] showed an IC50 of 3 to 30 nM.

Values taken from US10787450B2 (BRISTOL-MYERS SQUIBB COMPANY, priority 2016, dated 2020).
